Reference: paper PMC6098585, “Characterization and structure-activity relationships of indenoisoquinoline-derived topoisomerase I inhibitors in unsilencing the dormant Ube3a gene associated with Angelman syndrome” (Molecular Autism, 2018)
Like-named read-outs stand apart in the source and are kept apart here.

Key:
paternal Ube3a-YFP [1] = assay: Paternal Ube3a-YFP unsilencing, fluorescence immunostaining and high-content imaging in primary cortical neurons (Ube3a^m+/pYFP); format: cell-based, mouse; conditions: for neurons expressing paternal Ube3a-YFP above threshold: 0.3 μM, n = 4 wells, YFP-positive cells / total Hoechst-positive cells
Protocol: We followed the protocols for fluorescent immunostaining and high-content imaging of cortical neurons as previously described. Briefly, 72 h after drug treatment, the cells were fixed with 4% paraformaldehyde at room temperature for 15 min. After rinsing with phosphate-buffered saline (PBS) three times, the cells were permeabilized with 1% Triton-X 100 in PBS, followed by blocking with 5% NGS and 0.1% Triton-X 100 in PBS at room temperature for 30 min. After blocking, the cells were incubated with primary antibody, rabbit anti-GFP (1:1000, Novus Biologicals), at 4 °C overnight. The cells were then briefly rinsed with PBS followed by incubation with secondary antibody, goat anti-rabbit Alexa Fluor 488 (1:200, Thermo Fisher/Invitrogen), at room temperature. One hour after secondary antibody incubation, the cells were rinsed with PBS and fluorescent images were acquired using a BD Pathway 855 bioimager. The acquired images were processed by CellProfiler to count the number of positive cells and measure fluorescent intensity (Additional file 2). To determine the percentage of neurons expressing paternal Ube3a-YFP, we counted the total number of cells (Hoechst) and YFP-positive cells, and the number of YFP-positive cells was divided by the total number of cells. Fluorescence intensity was measured in neurons expressing unsilenced paternal Ube3a-YFP and normalized to vehicle control.

paternal Ube3a-YFP [2] = assay: Western blot of paternal UBE3A-YFP in cultured neurons from Ube3a^m+/pYFP mice; format: cell-based, mouse; conditions: 0.3 μM, 72 h, n = 3/group
Protocol: (§1) We followed the same procedures of Western blot analysis as previously described. In brief, 72 h after drug treatment, we collected the cultured neurons from 6-well plates and extracted total protein with protein extraction buffer. Bradford assay was performed to measure protein concentration, and 30 μg of total protein was loaded for Bis-polyacrylamide gel electrophoresis (Bio-Rad). Electrophoresed proteins were transferred to nitrocellulose membrane (0.45 μm, Bio-Rad). The membranes were blocked with 5% non-fat milk in TBS-T at room temperature for 30 min followed by overnight 4 °C incubation with primary antibodies (rabbit anti-GFP, 1:1000, Novus Biologicals; rabbit anti-Ube3a, 1:1000, Bethyl Lab; mouse anti-actin; 1:5000, Sigma). The next day, the membranes were rinsed with TBS-T three times and incubated with HPR-conjugated secondary antibodies for 1 h at room temperature (goat anti-rabbit, 1:1000, Vector Lab or goat anti-mouse, 1:1000, Vector Lab). Following secondary antibody incubation, the membranes were rinsed with TBS-T at room temperature for 1 h (4–5 times) and ECL substrates (Bio-Rad) were used to visualize immunostaining using an Amersham Imager 600 (AI600, GE Life Sciences).

paternal UBE3A = assay: Western blot of paternal UBE3A in cultured neurons from AS model mice (Ube3a^m−/p+); format: cell-based, mouse; conditions: 0.3 μM, 72 h, vs DMSO, n = 3/group
Protocol: as §1

[3] = Cytotoxicity test (Cyto Tox-Glo) in cultured cortical neurons; conditions: mouse, primary cultured cortical neurons from E14.5 embryos
Top1 = conditions: cited from earlier work
ABCG2 = tested on: ABCG2; set-up: method as in PMID 17974983; conditions: cited from earlier work
MDR1 = tested on: MDR1; set-up: method as in PMID 17974983; conditions: cited from earlier work
[4] = set-up: method as in earlier work; conditions: cited from earlier work
[5] = set-up: method as in PMID 27169793; conditions: at the concentrations examined; cited from earlier work
in vitro = conditions: mouse
[6] = Table S1, nine analogues, unsilencing of paternal UBE3A-YFP, 72 h
[7] = Table S1, nine analogues, unsilencing of paternal UBE3A-YFP, 72 h, 'ambiguous' = limited effective dose range, read-out: EC50
[8] = Mus musculus, Primary cortical neuron, unsilencing of paternal UBE3A-YFP, drug 72 h from DIV 7, n = 4/group, estimated from Fig. 4, read-out: EC50
[9] = maximum response of unsilencing paternal Ube3a-YFP, fluorescence intensity normalized to vehicle control, 72 h, estimated from Fig. 4

EC50 (paternal Ube3a-YFP [1]; [7]) [nM] | SMILES | Emax (paternal Ube3a-YFP [1]; [6]) | neurons expressing paternal Ube3a-YFP above threshold (paternal Ube3a-YFP [1]; 72 h) [%] | EC50 (paternal Ube3a-YFP [1]; [8]) [nM] | Emax (paternal Ube3a-YFP [1]; [9]) | paternal UBE3A-YFP protein level (Western blot, normalized to actin) (paternal Ube3a-YFP [2]) | paternal UBE3A protein level (Western blot, normalized to actin) (paternal UBE3A) | CC50 at 72 h [3] [nM] | further results
121 | COc1cc2c3c(n(C[C@H](O)CO)c(=O)c2cc1OC)-c1cc2c(cc1C3=O)OCO2 [DB-IV-50] | 1.39 (±0.07) |  |  |  |  |  |  | 
 | COc1cc2c3c(n(C[C@@H](O)CO)c(=O)c2cc1OC)-c1cc2c(cc1C3=O)OCO2 [DB-IV-58] |  | 17.7 ± 3.87 | 31 | 1.45 (± 0.12) | led to paternal UBE3A-YFP protein production | high level of paternal UBE3A protein | 2010 | 
 | O=C1c2ccccc2-c2c1c1ccc([N+](=O)[O-])cc1c(=O)n2CC(O)C(O)C(O)CO (centres unmarked) [DB-V-37] |  | 14.1 ± 3.55 | 29.9 | 1.48 (± 0.08) | led to paternal UBE3A-YFP protein production | high level of paternal UBE3A protein | 2020 | 
 | COc1cc2c3c(n(CCCn4ccnc4)c(=O)c2cc1OC)-c1cc2c(cc1C3=O)OCO2 [Indimitecan, indimitecan] |  | 23.9 ± 1.72 | 7.47 | 1.47 (± 0.10) | led to paternal UBE3A-YFP protein production | high level of paternal UBE3A protein | 789 | inhibition of Top1 enzymatic activity (Top1): ~100%
 | COc1cc2c3c(n(CCCN4CCOCC4)c(=O)c2cc1OC)-c1cc2c(cc1C3=O)OCO2 [Indotecan, indotecan] |  | 37.1 ± 5.19 | 25.6 | 1.78 (± 0.13) | led to paternal UBE3A-YFP protein production | high level of paternal UBE3A protein |  | EC50 (paternal Ube3a-YFP [1]; Mus musculus, Primary cortical neuron, read-out: EC50 to produce Ube3a unsilencing): ~26 nM; inhibition of Top1 enzymatic activity (Top1): ~100%; substrate for transporter ABCG2 (ABCG2): not a substrate; substrate for transporter MDR1 (MDR1): not a substrate; CNS penetration [4]: favorable CNS penetration; tolerability in a clinical population [5]: well tolerated; CC50 at 72 h (in vitro): 2010 nM
~26.8 | C=CCn1c2c(c3cc(OC)c(OC)cc3c1=O)C(=O)c1cc3c(cc1-2)OCO3 [MJ-II-66A] | 1.20 (±0.05) |  |  |  |  |  |  | range of doses that produce Ube3a-YFP unsilencing before toxicities (paternal Ube3a-YFP [1]; dose-response 1E-10 to 3E-5 M, 72 h): very limited range of doses
634 | COc1cc2c3c(n(CCCO)c(=O)c2cc1OC)-c1cc2c(cc1C3=O)OCO2 [MNR-IV-64] | 1.37 (±0.09) |  |  |  |  |  |  | 
 | CC[C@@]1(O)C(=O)OCc2c1cc1n(c2=O)Cc2cc3c(CN(C)C)c(O)ccc3nc2-1 [Topotecan] |  | 33.0 ± 2.56 | 30.4 | 1.51 (± 0.11) | led to paternal UBE3A-YFP protein production | high level of paternal UBE3A protein |  | CC50 at 72 h (in vitro): 2300 nM
